Laboratory results from ChEMBL document CHEMBL5506038, “Discovery of LC-MI-3: A Potent and Orally Bioavailable Degrader of Interleukin-1 Receptor-Associated Kinase 4 for the Treatment of Inflammatory Diseases” (J Med Chem, 2024).
One block for each compound: values may come before it. Calls of active or inactive are those of the source. The rule behind the calls is not given here.

Experiments:
[1] = target: Protein cereblon/Interleukin-1 receptor-associated kinase 4 (Mus musculus) (UniProt Q8C7D2+Q8R4K2); test: PROTAC activity at IRAK4/CRBN in mouse BaF3 cells assessed as reduction in IRAK4 level at 100 nM incubated for 12 hrs by Western blot analysis relative to control; format: cell-based; set-up: scale not given: the % may be the effect or the level left
[2] = target: T1, Interleukin-1 receptor-associated kinase 4 (Mus musculus) (UniProt Q8R4K2); test: Inhibition of IRAK4 in LPS-induced mouse RAW264.7 cells assessed as reduction in p38 level at 1 to 5 uM pretreated with LPS for 1 hr followed by compound administration and measured after 2 hrs by Western blotting analysis; format: cell-based; settings: dose 1-5 µM
T1 sequence (whole entry): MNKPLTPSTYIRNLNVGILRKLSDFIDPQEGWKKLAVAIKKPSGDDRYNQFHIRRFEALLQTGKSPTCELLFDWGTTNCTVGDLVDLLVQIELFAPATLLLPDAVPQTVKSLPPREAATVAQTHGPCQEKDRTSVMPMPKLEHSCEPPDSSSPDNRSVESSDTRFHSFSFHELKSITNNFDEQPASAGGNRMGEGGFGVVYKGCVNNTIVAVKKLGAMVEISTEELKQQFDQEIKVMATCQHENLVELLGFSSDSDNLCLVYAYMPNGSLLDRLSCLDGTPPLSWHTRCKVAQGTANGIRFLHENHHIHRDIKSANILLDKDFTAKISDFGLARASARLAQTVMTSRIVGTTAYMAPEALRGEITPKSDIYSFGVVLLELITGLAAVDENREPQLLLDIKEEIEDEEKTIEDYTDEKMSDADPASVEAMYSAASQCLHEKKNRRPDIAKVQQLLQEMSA

[3] = target: Tyrosine-protein kinase JAK3 (Homo sapiens) (UniProt P52333); test: Inhibition of JAK3 (unknown origin) at 1 uM relative to control
[4] = target: Interleukin-1 receptor-associated kinase 1 (Homo sapiens) (UniProt P51617); test: Inhibition of IRAK1 (unknown origin) at 1 uM relative to control
[5] = target: TRAF2 and NCK-interacting protein kinase (Homo sapiens) (UniProt Q9UKE5); test: Inhibition of TNIK (unknown origin) at 1 uM relative to control
RAW264.7 [6] = test: Activation of NF-kappaB pathway in LPS-induced mouse RAW264.7 cells expressing EGFP at 5 uM pretreated with compound for 1 hr followed by LPS-induction and measured after 6 hrs by flow cytometry analysis; format: cell-based; settings: filed as activator, time 7.0 hrs
RAW264.7 [7] = test: Activation of NF-kappaB pathway in LPS-induced mouse RAW264.7 cells expressing EGFP at 5 uM pretreated with compound for 1 hr followed by LPS-induction and measured at 15 min by flow cytometry analysis; format: cell-based; settings: filed as activator, time 75.0 min
[8] = target: Tyrosine-protein kinase JAK1 (Homo sapiens) (UniProt P23458); test: Inhibition of JAK1 (unknown origin) at 1 uM relative to control
[9] = target: Citron Rho-interacting kinase (Homo sapiens) (UniProt O14578); test: Inhibition of CIT (unknown origin) at 1 uM relative to control
[10] = target: Serine/threonine-protein kinase RIO3 (Homo sapiens) (UniProt O14730); test: Inhibition of RIOK3 (unknown origin) at 1 uM relative to control
[11] = target: T1, Interleukin-1 receptor-associated kinase 4 (Mus musculus); test: Inhibition of IRAK4 in LPS-induced mouse RAW264.7 cells assessed as reduction in ERK level at 1 to 5 uM pretreated with LPS for 1 hr followed by compound administration and measured after 2 hrs by Western blotting analysis; format: cell-based; settings: dose 1-5 µM
RAW264.7 [12] = test: Activation of NF-kappaB pathway in LPS-induced mouse RAW264.7 cells at 5 uM pretreated with compound for 1 hr followed by LPS-induction and measured after 6 hrs by flow cytometry analysis; format: cell-based; settings: filed as activator, time 7.0 hrs
[13] = target: T1, Interleukin-1 receptor-associated kinase 4 (Mus musculus); test: Inhibition of IRAK4 in LPS-induced mouse RAW264.7 cells assessed as effect on IkappaB-alpha level at 1 to 5 uM pretreated with LPS for 1 hr followed by compound administration and measured after 2 hrs by Western blotting analysis; format: cell-based; settings: dose 1-5 µM
[14] = target: Mitogen-activated protein kinase kinase kinase kinase 4 (Homo sapiens) (UniProt O95819); test: Inhibition of MAP4K4 (unknown origin) at 1 uM relative to control
[15] = target: T1, Interleukin-1 receptor-associated kinase 4 (Mus musculus); test: Inhibition of IRAK4 in LPS-induced mouse RAW264.7 cells assessed as reduction in p65 nuclear translocation at 1 to 5 uM pretreated with LPS for 1 hr followed by compound administration and measured after 2 hrs by immunofluorescence analysis; format: cell-based; settings: dose 1-5 µM
[16] = target: MAP kinase p38 (Mus musculus) (UniProt P47811+O08911+Q9WUI1+Q9Z1B7); test: Inhibition of MAPK phosphorylation in LPS-induced mouse RAW264.7 cells at 1 uM pretreated with compound for 1 hr followed by LPS-induction and measured after 2 hrs by Western blot analysis; format: cell-based; settings: time 3.0 hrs
[17] = target: T1, Interleukin-1 receptor-associated kinase 4 (Mus musculus); test: Inhibition of IRAK4 in LPS-induced mouse RAW264.7 cells assessed as reduction in JNK level at 1 to 5 uM pretreated with LPS for 1 hr followed by compound administration and measured after 2 hrs by Western blotting analysis; format: cell-based; settings: dose 1-5 µM
[18] = target: Mitogen-activated protein kinase kinase kinase 19 (Homo sapiens) (UniProt Q56UN5); test: Inhibition of YSK4 (unknown origin) at 1 uM relative to control
Mus musculus = test: Anti-inflammatory activity against LPS-induced acute […] injury C57BL/6 mouse model assessed as reduction in ERK level at 20 mg/kg, IG pretreated with compound for 12 hrs followed by LPS-induction and measured after 6 hrs; format: functional, organism-based; settings: time 18.0 hrs
[19] = target: Serine/threonine-protein kinase RIO1 (Homo sapiens) (UniProt Q9BRS2); test: Inhibition of RIOK1 (unknown origin) at 1 uM relative to control
[20] = target: Dual specificity mitogen-activated protein kinase kinase 5 (Homo sapiens) (UniProt Q13163); test: Inhibition of MEK5 (unknown origin) at 1 uM relative to control
[21] = target: T2, Interleukin-1 receptor-associated kinase 4 (Homo sapiens, UniProt Q9NWZ3); test: (§1) Inhibition of IRAK4 (unknown origin)
T2 sequence (Q9NWZ3 whole entry): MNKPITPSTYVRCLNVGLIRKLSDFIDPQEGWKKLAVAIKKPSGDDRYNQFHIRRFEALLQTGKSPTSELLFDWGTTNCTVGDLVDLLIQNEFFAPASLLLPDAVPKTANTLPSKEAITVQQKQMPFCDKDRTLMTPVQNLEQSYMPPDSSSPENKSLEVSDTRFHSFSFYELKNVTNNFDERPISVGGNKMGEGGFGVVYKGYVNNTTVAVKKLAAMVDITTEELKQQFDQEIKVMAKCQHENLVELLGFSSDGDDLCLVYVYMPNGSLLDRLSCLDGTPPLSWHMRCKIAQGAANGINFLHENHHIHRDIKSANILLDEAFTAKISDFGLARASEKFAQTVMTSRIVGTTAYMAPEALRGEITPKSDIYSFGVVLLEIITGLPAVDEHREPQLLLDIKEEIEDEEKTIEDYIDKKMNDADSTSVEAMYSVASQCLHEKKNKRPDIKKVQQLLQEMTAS

[22] = target: T3, Interleukin-1 receptor-associated kinase 4 (Homo sapiens) (UniProt Q9NWZ3); test: as §1
T3 sequence (whole entry): T2 sequence (Q9NWZ3 whole entry)

[23] = target: Protein cereblon/Interleukin-1 receptor-associated kinase 4 (Homo sapiens, UniProt Q9NWZ3+Q96SW2); test: PROTAC activity at IRAK4/CRBN in HEK293T cells assessed as induction of IRAK4 degradation by immunoblotting analysis; format: cell-based
[24] = Drug metabolism in rat hepatocyte assessed as amide hydrolysis-mediated metabolite formation by LC-MS/MS analysis; format: ADME, cell-based; settings: hepatocytes

Sequence of Protein cereblon/Interleukin-1 receptor-associated kinase 4 (Mus musculus) (Q8C7D2 whole entry, looked up, one chain of several): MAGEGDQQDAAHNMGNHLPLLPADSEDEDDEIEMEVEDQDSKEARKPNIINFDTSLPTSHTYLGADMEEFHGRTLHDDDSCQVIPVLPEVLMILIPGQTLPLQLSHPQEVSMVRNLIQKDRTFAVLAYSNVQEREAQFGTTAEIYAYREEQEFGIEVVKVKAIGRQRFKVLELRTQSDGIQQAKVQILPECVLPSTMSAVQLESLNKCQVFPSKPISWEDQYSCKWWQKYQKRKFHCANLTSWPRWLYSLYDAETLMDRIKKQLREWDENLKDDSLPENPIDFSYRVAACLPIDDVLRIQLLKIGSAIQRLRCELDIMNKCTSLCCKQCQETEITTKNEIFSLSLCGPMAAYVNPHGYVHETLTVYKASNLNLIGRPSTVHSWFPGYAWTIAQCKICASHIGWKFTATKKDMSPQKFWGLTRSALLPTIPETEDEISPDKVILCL
Sequence of Serine/threonine-protein kinase RIO3 (Homo sapiens) (O14730 whole entry): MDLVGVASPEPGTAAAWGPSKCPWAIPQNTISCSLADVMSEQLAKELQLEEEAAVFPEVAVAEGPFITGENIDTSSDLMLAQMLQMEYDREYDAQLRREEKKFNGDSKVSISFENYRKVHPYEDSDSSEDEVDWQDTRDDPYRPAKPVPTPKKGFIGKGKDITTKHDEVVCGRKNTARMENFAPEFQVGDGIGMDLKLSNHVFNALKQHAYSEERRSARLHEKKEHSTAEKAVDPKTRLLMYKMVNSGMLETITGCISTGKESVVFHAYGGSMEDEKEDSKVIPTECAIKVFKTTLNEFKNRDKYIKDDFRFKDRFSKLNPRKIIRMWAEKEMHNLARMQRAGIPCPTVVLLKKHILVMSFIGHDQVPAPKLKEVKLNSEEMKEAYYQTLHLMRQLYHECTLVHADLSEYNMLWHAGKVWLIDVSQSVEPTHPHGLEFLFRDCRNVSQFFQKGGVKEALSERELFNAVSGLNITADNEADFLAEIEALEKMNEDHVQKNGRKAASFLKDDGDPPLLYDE
Sequence of Serine/threonine-protein kinase RIO1 (Homo sapiens) (Q9BRS2 whole entry): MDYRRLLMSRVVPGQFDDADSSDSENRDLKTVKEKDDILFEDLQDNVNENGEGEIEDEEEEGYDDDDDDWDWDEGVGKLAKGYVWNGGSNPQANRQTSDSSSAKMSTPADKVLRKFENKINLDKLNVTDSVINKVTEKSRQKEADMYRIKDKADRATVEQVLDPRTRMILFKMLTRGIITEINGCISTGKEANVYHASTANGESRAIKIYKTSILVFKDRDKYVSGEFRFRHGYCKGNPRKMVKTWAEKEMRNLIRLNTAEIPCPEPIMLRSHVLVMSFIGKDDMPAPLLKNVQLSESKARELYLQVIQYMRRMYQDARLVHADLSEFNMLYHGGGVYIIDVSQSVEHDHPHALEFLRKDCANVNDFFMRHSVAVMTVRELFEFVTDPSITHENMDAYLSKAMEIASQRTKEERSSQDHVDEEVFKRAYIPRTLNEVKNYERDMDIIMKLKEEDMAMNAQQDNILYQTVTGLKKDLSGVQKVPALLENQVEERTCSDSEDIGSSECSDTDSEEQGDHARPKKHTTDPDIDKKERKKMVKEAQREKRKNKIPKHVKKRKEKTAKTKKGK
Sequence of Interleukin-1 receptor-associated kinase 1 (Homo sapiens) (P51617 whole entry, looked up): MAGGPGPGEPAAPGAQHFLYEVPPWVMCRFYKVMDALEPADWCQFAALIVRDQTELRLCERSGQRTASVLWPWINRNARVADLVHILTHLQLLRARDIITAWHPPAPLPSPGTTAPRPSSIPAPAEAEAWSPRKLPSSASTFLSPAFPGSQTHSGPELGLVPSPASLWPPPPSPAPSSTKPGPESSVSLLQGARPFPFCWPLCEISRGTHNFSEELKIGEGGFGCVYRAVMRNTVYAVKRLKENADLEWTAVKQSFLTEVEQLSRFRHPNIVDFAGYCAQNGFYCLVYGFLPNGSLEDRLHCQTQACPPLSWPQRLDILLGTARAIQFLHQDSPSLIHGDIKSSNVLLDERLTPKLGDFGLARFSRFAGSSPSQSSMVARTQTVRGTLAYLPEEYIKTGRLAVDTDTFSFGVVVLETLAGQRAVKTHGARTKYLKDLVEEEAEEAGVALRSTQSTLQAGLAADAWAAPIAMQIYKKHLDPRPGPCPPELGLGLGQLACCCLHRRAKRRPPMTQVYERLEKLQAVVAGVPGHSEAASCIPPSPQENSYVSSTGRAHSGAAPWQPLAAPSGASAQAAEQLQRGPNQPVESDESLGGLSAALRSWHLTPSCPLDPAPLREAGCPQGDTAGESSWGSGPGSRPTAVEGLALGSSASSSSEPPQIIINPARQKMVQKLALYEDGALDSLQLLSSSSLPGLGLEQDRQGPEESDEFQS
Sequence of Tyrosine-protein kinase JAK1 (Homo sapiens) (P23458 whole entry): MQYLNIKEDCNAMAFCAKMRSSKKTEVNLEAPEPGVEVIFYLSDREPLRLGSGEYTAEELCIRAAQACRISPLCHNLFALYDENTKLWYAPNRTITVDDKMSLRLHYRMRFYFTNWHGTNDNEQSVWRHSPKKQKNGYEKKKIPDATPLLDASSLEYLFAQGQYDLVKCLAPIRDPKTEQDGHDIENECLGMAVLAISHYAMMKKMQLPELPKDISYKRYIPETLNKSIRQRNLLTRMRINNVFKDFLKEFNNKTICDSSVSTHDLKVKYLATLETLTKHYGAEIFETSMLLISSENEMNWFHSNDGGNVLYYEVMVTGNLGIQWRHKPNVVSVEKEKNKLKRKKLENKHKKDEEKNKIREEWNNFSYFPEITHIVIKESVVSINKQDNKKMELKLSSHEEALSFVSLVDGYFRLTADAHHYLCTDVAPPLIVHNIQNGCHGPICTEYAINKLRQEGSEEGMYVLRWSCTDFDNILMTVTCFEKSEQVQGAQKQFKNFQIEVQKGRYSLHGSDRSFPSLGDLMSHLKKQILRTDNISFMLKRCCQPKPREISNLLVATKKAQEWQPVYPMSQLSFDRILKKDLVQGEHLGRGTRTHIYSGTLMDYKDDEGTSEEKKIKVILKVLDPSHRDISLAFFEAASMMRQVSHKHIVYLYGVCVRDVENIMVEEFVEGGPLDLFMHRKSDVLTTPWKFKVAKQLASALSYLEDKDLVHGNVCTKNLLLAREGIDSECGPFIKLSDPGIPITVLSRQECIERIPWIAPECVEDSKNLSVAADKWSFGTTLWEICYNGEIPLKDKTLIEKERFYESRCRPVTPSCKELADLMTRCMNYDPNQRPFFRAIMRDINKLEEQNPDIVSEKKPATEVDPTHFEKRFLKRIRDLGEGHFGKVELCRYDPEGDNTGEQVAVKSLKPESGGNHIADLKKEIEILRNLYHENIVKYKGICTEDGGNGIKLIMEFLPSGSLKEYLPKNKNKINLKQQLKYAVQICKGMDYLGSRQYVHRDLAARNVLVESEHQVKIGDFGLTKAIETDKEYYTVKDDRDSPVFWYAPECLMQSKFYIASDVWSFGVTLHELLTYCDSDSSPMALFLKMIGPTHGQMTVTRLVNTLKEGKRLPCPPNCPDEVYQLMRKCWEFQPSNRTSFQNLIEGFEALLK
Sequence of Tyrosine-protein kinase JAK3 (Homo sapiens) (P52333 whole entry): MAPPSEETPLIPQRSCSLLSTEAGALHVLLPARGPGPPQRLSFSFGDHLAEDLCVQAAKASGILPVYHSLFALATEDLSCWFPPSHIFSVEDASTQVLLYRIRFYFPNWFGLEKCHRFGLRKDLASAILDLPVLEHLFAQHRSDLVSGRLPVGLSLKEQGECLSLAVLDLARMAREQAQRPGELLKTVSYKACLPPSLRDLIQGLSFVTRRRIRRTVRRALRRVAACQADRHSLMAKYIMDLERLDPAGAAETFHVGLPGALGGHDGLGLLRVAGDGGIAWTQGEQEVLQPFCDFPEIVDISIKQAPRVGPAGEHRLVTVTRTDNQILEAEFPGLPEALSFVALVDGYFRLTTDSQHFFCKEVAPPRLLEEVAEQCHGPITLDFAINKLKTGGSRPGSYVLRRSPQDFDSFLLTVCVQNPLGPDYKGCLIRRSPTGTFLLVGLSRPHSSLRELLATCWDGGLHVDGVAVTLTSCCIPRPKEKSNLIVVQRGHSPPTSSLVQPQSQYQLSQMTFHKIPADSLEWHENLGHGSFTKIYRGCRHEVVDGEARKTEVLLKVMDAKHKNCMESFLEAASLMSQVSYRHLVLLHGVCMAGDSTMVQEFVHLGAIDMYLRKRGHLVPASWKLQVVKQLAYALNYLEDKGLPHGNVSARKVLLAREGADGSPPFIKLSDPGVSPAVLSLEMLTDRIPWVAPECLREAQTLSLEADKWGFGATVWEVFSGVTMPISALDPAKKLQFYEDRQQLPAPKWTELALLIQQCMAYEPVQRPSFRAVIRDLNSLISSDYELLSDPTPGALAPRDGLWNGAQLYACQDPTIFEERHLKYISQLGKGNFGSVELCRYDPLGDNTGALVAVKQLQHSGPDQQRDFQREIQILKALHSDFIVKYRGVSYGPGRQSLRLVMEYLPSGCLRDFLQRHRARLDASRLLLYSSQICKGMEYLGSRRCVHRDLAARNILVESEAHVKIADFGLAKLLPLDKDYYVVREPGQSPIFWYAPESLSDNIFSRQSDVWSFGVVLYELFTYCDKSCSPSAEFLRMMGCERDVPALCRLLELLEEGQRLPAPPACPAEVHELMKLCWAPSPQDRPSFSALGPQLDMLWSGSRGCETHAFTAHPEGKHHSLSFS
Sequence of Dual specificity mitogen-activated protein kinase kinase 5 (Homo sapiens) (Q13163 whole entry): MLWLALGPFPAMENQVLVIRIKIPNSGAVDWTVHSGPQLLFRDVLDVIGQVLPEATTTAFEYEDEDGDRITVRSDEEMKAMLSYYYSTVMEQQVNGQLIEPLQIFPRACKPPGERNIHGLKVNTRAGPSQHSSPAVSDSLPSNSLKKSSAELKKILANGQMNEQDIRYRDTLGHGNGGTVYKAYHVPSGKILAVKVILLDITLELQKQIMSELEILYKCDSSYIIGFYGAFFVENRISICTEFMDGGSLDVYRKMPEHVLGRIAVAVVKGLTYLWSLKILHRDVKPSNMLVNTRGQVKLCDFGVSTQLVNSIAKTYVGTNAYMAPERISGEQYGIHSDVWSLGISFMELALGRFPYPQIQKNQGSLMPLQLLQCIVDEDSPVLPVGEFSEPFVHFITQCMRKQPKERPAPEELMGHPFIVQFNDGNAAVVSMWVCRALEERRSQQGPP

Activity [1]: 63%
IC50 [21]: < 100 nM
SMILES: COc1cc(N2CCN(CC(=O)NCCNc3cccc4c3C(=O)N(C3CCC(=O)NC3=O)C4=O)CC2)ccc1NC(=O)c1cccc(-c2ccn[nH]2)n1 (stereo not given)

Activity [1]: 32%
IC50 [21]: < 100 nM
SMILES: COc1cc(N2CCN(C(=O)CCCCCCCCCCCNc3cccc4c3C(=O)N(C3CCC(=O)NC3=O)C4=O)CC2)ccc1NC(=O)c1cccc(-c2ccn[nH]2)n1 (stereo not given)

Activity [1]: 55%
IC50 [21]: < 100 nM
SMILES: COc1cc(N2CCN(C(=O)CCCCCNc3cccc4c3C(=O)N(C3CCC(=O)NC3=O)C4=O)CC2)ccc1NC(=O)c1cccc(-c2ccn[nH]2)n1 (stereo not given)

Drug metabolism [24]: Metabolite_Detected
SMILES: COc1cc(N2CCN(CC(=O)NCCOCCOCCNc3cccc4c3C(=O)N(C3CCC(=O)NC3=O)C4=O)CC2)ccc1NC(=O)c1cccc(-c2ccn[nH]2)n1 (stereo not given)

inhibition [22]: inactive
SMILES: COc1cc(N2CCN(CC(=O)NCCCCCCCCNc3cccc4c3C(=O)N(C3CCC(=O)NC3=O)C4=O)CC2)ccc1NC(=O)c1cccc(-c2ccn[nH]2)n1 (stereo not given)

Continued, compound first:

SMILES: COc1cc(N2CCOCC2)ccc1NC(=O)c1cccc(-c2ccn[nH]2)n1
Activity [1]: 100%
inhibition [2]: Active
inhibition [3]: inactive
inhibition [4]: > 95%
inhibition [5]: inactive
Activity (RAW264.7 [6]): Active
Activity (RAW264.7 [7]): Active
inhibition [8]: inactive
inhibition [9]: inactive
inhibition [10]: > 95%
inhibition [11]: Active
Activity (RAW264.7 [12]): Active
inhibition [13]: Active
inhibition [14]: inactive
inhibition [15]: Active
inhibition [16]: Active
inhibition [17]: Active
inhibition [18]: inactive
Activity (Mus musculus): Active
inhibition [19]: inactive
inhibition [20]: inactive

SMILES: COc1cc(N2CCN(C(=O)C3CCN(c4ccc5c(c4)C(=O)N(C4CCC(=O)NC4=O)C5=O)CC3)CC2)ccc1NC(=O)c1cccc(-c2ccn[nH]2)n1 (stereo not given)
inhibition [22]: inactive

SMILES: CC(C)Nc1cc(-n2ccc3cc(C#N)cnc32)ncc1C(=O)NC1CCC(C(=O)NCCOCCNC(=O)COc2cccc3c2C(=O)N(C2CCC(=O)NC2=O)C3=O)CC1 (stereo not given)
DC50 [23]: 405 nM

SMILES: COc1cc(N2CCN(C(=O)C3CN(c4ccc5c(c4)C(=O)N(C4CCC(=O)NC4=O)C5=O)C3)CC2)ccc1NC(=O)c1cccc(-c2ccn[nH]2)n1 (stereo not given)
Activity [1]: 26%
IC50 [21]: < 100 nM

SMILES: COc1cc(N2CCN(CC(=O)NCCOCCOCCOCCOCCNc3cccc4c3C(=O)N(C3CCC(=O)NC3=O)C4=O)CC2)ccc1NC(=O)c1cccc(-c2ccn[nH]2)n1 (stereo not given)
inhibition [22]: inactive

SMILES: COc1cc(N2CCN(CC(=O)NCCOCCOCCNC(=O)C3CCN(c4ccc5c(c4)C(=O)N(C4CCC(=O)NC4=O)C5=O)CC3)CC2)ccc1NC(=O)c1cccc(-c2ccn[nH]2)n1 (stereo not given)
inhibition [22]: inactive
